Measured values from the supplement of paper PMC10307832.

Experiments:
Test in all cases: relative viability (nuclei count vs DMSO), 5 days (fraction); higher = more cells survive
[1] = compound: COc1cc(-c2nn([C@H]3CC[C@H](N4CCN(C(C)=O)CC4)CC3)c3ncnc(N)c23)ccc1NC(=O)c1cc2ccccc2n1C + Nc1ncn([C@H]2C[C@H](O)[C@@H](CO)O2)c(=O)n1 [Decitabine] (partner 2 µM)
Procedure, shortened: (§1)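 Five library-drug doses in √10 steps were combined with a fixed anchor-drug dose, or a single drug was given alone, by pin tool to lung cancer cell lines in 1536-well plates the day after seeding. Nuclei were stained and counted after 5 days. Relative viability is the nuclei count in treated wells over that in vehicle wells, taken as the median of duplicate plates.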

[2] = compound: COc1cc(-c2nn([C@H]3CC[C@H](N4CCN(C(C)=O)CC4)CC3)c3ncnc(N)c23)ccc1NC(=O)c1cc2ccccc2n1C + N=C(N)NC(=N)NCCc1ccccc1 [Phenformin] (partner 250 µM)
Procedure, shortened: as §1

Midostaurin + Decitabine = compound: CO[C@@H]1[C@H](N(C)C(=O)c2ccccc2)C[C@H]2O[C@]1(C)n1c3ccccc3c3c4c(c5c6ccccc6n2c5c31)C(=O)NC4 [Midostaurin] + Nc1ncn([C@H]2C[C@H](O)[C@@H](CO)O2)c(=O)n1 [Decitabine] (partner 2 µM)
Procedure, shortened: as §1

[3] = compound: CO[C@@H]1[C@H](N(C)C(=O)c2ccccc2)C[C@H]2O[C@]1(C)n1c3ccccc3c3c4c(c5c6ccccc6n2c5c31)C(=O)NC4 [Midostaurin] + CC(=O)c1c(C)c2cnc(Nc3ccc(N4CCNCC4)cn3)nc2n(C2CCCC2)c1=O [Palbociclib] (partner 0.5 µM)
Procedure, shortened: as §1

[4] = compound: COc1cc(-c2nn([C@H]3CC[C@H](N4CCN(C(C)=O)CC4)CC3)c3ncnc(N)c23)ccc1NC(=O)c1cc2ccccc2n1C + O=C(CCCCCCC(=O)Nc1ccccc1)NO [Vorinostat] (partner 1 µM)
Procedure, shortened: as §1

UMC-11
relative viability ([1]; first compound 0.0128 µM): 0.706
relative viability ([1]; first compound 0.04048 µM): 0.606
relative viability ([1]; first compound 0.128 µM): 0.745
relative viability ([1]; first compound 1.28 µM): 0.543
relative viability ([2]; first compound 0.0128 µM): 0.285
relative viability ([2]; first compound 0.04048 µM): 0.336
relative viability ([2]; first compound 0.128 µM): 0.311
relative viability ([2]; first compound 1.28 µM): 0.279
relative viability (Midostaurin + Decitabine; first compound 0.01 µM): 0.655
relative viability (Midostaurin + Decitabine; first compound 0.03162 µM): 0.772
relative viability (Midostaurin + Decitabine; first compound 0.1 µM): 0.637
relative viability (Midostaurin + Decitabine; first compound 0.3162 µM): 0.704
relative viability ([3]; first compound 0.01 µM): 0.352
relative viability ([3]; first compound 0.03162 µM): 0.391
relative viability ([3]; first compound 0.1 µM): 0.364
relative viability ([3]; first compound 0.3162 µM): 0.284
relative viability ([4]; first compound 0.0128 µM): 0.44
relative viability ([4]; first compound 0.04048 µM): 0.38
relative viability ([4]; first compound 0.128 µM): 0.351
relative viability ([4]; first compound 1.28 µM): 0.342
